Values quoted from earlier work as cited in patent publication US20040220167A1, “Methods of treating neuralgic pain” (priority 2003, published 2004).

Details: in vivo

- fraction cleared via the kidneys: Less than 1%
- mean half-life: 5 to 6 h
- primary clearance route: primarily cleared through bile and feces
Substance: Verteporfin
